Experimental data: ChEMBL document CHEMBL1201861, “Genomics of Drug Sensitity in Cancer screening data, Wellcome Trust Sanger Institute”

test system: NB12; test: cells; format: functional, cell-based; details: Homo sapiens;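 further: growth inhibition of human NB12 cells, read out by a cell viability assay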
Description: SANGER: Inhibition of human NB12 cell growth in a cell viability assay.

SMILES	IC50
CC1(C)CCC(c2ccc(Cl)cc2)=C(CN2CCN(c3ccc(C(=O)NS(=O)(=O)c4ccc(N[C@H](CCN5CCOCC5)CSc5ccccc5)c(S(=O)(=O)C(F)(F)F)c4)cc3)CC2)C1 [NAVITOCLAX]	0.231 µM

test system: NCI-H1666; test: cells; format: functional, cell-based; details: Homo sapiens;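 further: growth inhibition of the cell line, read out with a cell viability assay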
Description: SANGER: Inhibition of human NCI-H1666 cell growth in a cell viability assay.

SMILES	IC50
CC1(C)CCC(c2ccc(Cl)cc2)=C(CN2CCN(c3ccc(C(=O)NS(=O)(=O)c4ccc(N[C@H](CCN5CCOCC5)CSc5ccccc5)c(S(=O)(=O)C(F)(F)F)c4)cc3)CC2)C1 [NAVITOCLAX]	> 2 µM

test system: LCLC-97TM1; test: cells; format: functional, cell-based; details: Homo sapiens;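 further: cell viability assay measuring growth inhibition of human LCLC-97TM1 cells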
Description: SANGER: Inhibition of human LCLC-97TM1 cell growth in a cell viability assay.

SMILES	IC50
CC1(C)CCC(c2ccc(Cl)cc2)=C(CN2CCN(c3ccc(C(=O)NS(=O)(=O)c4ccc(N[C@H](CCN5CCOCC5)CSc5ccccc5)c(S(=O)(=O)C(F)(F)F)c4)cc3)CC2)C1 [NAVITOCLAX]	> 2 µM

test system: Detroit 562; test: cells; format: functional, cell-based; details: Homo sapiens;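 further: growth inhibition of human Detroit 562 cells, read out by a cell viability assay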
Description: SANGER: Inhibition of human Detroit562 cell growth in a cell viability assay.

SMILES	IC50
CC1(C)CCC(c2ccc(Cl)cc2)=C(CN2CCN(c3ccc(C(=O)NS(=O)(=O)c4ccc(N[C@H](CCN5CCOCC5)CSc5ccccc5)c(S(=O)(=O)C(F)(F)F)c4)cc3)CC2)C1 [NAVITOCLAX]	> 2 µM

test system: TGBC11TKB; test: cells; format: functional, cell-based; details: Homo sapiens;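 further: growth inhibition of human TGBC11TKB cells, measured by a cell viability assay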
Description: SANGER: Inhibition of human TGBC11TKB cell growth in a cell viability assay.

SMILES	IC50
CC1(C)CCC(c2ccc(Cl)cc2)=C(CN2CCN(c3ccc(C(=O)NS(=O)(=O)c4ccc(N[C@H](CCN5CCOCC5)CSc5ccccc5)c(S(=O)(=O)C(F)(F)F)c4)cc3)CC2)C1 [NAVITOCLAX]	> 2 µM

test system: COR-L23; test: cells; format: functional, cell-based; details: Homo sapiens;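 further: cell viability assay measuring how strongly compounds suppress growth of COR-L23 cells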
Description: SANGER: Inhibition of human COR-L23 cell growth in a cell viability assay.

SMILES	IC50
CC1(C)CCC(c2ccc(Cl)cc2)=C(CN2CCN(c3ccc(C(=O)NS(=O)(=O)c4ccc(N[C@H](CCN5CCOCC5)CSc5ccccc5)c(S(=O)(=O)C(F)(F)F)c4)cc3)CC2)C1 [NAVITOCLAX]	1.8 µM

test system: COLO-741; test: cells; format: functional, cell-based; details: Homo sapiens
Description: SANGER: Inhibition of human COLO-741 cell growth in a cell viability assay.

SMILES	IC50
CC1(C)CCC(c2ccc(Cl)cc2)=C(CN2CCN(c3ccc(C(=O)NS(=O)(=O)c4ccc(N[C@H](CCN5CCOCC5)CSc5ccccc5)c(S(=O)(=O)C(F)(F)F)c4)cc3)CC2)C1 [NAVITOCLAX]	> 2 µM

test system: LoVo; test: cells; format: functional, cell-based; details: Homo sapiens;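 further: growth inhibition of human LoVo cells, read out with a cell viability assay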
Description: SANGER: Inhibition of human LoVo cell growth in a cell viability assay.

SMILES	IC50
CC1(C)CCC(c2ccc(Cl)cc2)=C(CN2CCN(c3ccc(C(=O)NS(=O)(=O)c4ccc(N[C@H](CCN5CCOCC5)CSc5ccccc5)c(S(=O)(=O)C(F)(F)F)c4)cc3)CC2)C1 [NAVITOCLAX]	> 2 µM

test system: PC-14; test: cells; format: functional, cell-based; details: Homo sapiens;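 further: cell viability assay measuring inhibition of PC-14 cell growth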
Description: SANGER: Inhibition of human PC-14 cell growth in a cell viability assay.

SMILES	IC50
CC1(C)CCC(c2ccc(Cl)cc2)=C(CN2CCN(c3ccc(C(=O)NS(=O)(=O)c4ccc(N[C@H](CCN5CCOCC5)CSc5ccccc5)c(S(=O)(=O)C(F)(F)F)c4)cc3)CC2)C1 [NAVITOCLAX]	> 2 µM

test system: D-392MG; test: cells; format: functional, cell-based; details: Homo sapiens

SMILES	IC50
CC1(C)CCC(c2ccc(Cl)cc2)=C(CN2CCN(c3ccc(C(=O)NS(=O)(=O)c4ccc(N[C@H](CCN5CCOCC5)CSc5ccccc5)c(S(=O)(=O)C(F)(F)F)c4)cc3)CC2)C1 [NAVITOCLAX]	> 2 µM

test system: RERF-LC-MS; test: cells; format: functional, cell-based; details: Homo sapiens;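 further: growth inhibition of human RERF-LC-MS cells, read out by a cell viability assay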
Description: SANGER: Inhibition of human RERF-LC-MS cell growth in a cell viability assay.

SMILES	IC50
CC1(C)CCC(c2ccc(Cl)cc2)=C(CN2CCN(c3ccc(C(=O)NS(=O)(=O)c4ccc(N[C@H](CCN5CCOCC5)CSc5ccccc5)c(S(=O)(=O)C(F)(F)F)c4)cc3)CC2)C1 [NAVITOCLAX]	> 2 µM

test system: CFPAC-1; test: cells; format: functional, cell-based; details: Homo sapiens;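 further: cell viability readout used to gauge suppression of CFPAC-1 cell proliferation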
Description: SANGER: Inhibition of human CFPAC-1 cell growth in a cell viability assay.

SMILES	IC50
CC1(C)CCC(c2ccc(Cl)cc2)=C(CN2CCN(c3ccc(C(=O)NS(=O)(=O)c4ccc(N[C@H](CCN5CCOCC5)CSc5ccccc5)c(S(=O)(=O)C(F)(F)F)c4)cc3)CC2)C1 [NAVITOCLAX]	> 2 µM

test system: BEN; test: cells; format: functional, cell-based; details: Homo sapiens;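 further: growth inhibition of the BEN cell line, read out with a cell viability assay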
Description: SANGER: Inhibition of human BEN cell growth in a cell viability assay.

SMILES	IC50
CC1(C)CCC(c2ccc(Cl)cc2)=C(CN2CCN(c3ccc(C(=O)NS(=O)(=O)c4ccc(N[C@H](CCN5CCOCC5)CSc5ccccc5)c(S(=O)(=O)C(F)(F)F)c4)cc3)CC2)C1 [NAVITOCLAX]	0.24 µM

test system: NCI-H2291; test: cells; format: functional, cell-based; details: Homo sapiens
Description: SANGER: Inhibition of human NCI-H2291 cell growth in a cell viability assay.

SMILES	IC50
CC1(C)CCC(c2ccc(Cl)cc2)=C(CN2CCN(c3ccc(C(=O)NS(=O)(=O)c4ccc(N[C@H](CCN5CCOCC5)CSc5ccccc5)c(S(=O)(=O)C(F)(F)F)c4)cc3)CC2)C1 [NAVITOCLAX]	> 2 µM

test system: HMV-2 cell line; test: cells; format: functional, cell-based; details: Homo sapiens;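 further: growth inhibition of HMV-II cells, read out with a cell viability assay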
Description: SANGER: Inhibition of human HMV-II cell growth in a cell viability assay.

SMILES	IC50
CC1(C)CCC(c2ccc(Cl)cc2)=C(CN2CCN(c3ccc(C(=O)NS(=O)(=O)c4ccc(N[C@H](CCN5CCOCC5)CSc5ccccc5)c(S(=O)(=O)C(F)(F)F)c4)cc3)CC2)C1 [NAVITOCLAX]	> 2 µM

test system: TCC-SUP; test: cells; format: functional, cell-based; details: Homo sapiens;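 further: growth inhibition of TCC-SUP cells, read out with a cell viability assay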
Description: SANGER: Inhibition of human TCCSUP cell growth in a cell viability assay.

SMILES	IC50
CC1(C)CCC(c2ccc(Cl)cc2)=C(CN2CCN(c3ccc(C(=O)NS(=O)(=O)c4ccc(N[C@H](CCN5CCOCC5)CSc5ccccc5)c(S(=O)(=O)C(F)(F)F)c4)cc3)CC2)C1 [NAVITOCLAX]	> 2 µM

test system: CHP-212; test: cells; format: functional, cell-based; details: Homo sapiens
Description: SANGER: Inhibition of human CHP-212 cell growth in a cell viability assay.

SMILES	IC50
CC1(C)CCC(c2ccc(Cl)cc2)=C(CN2CCN(c3ccc(C(=O)NS(=O)(=O)c4ccc(N[C@H](CCN5CCOCC5)CSc5ccccc5)c(S(=O)(=O)C(F)(F)F)c4)cc3)CC2)C1 [NAVITOCLAX]	> 2 µM

test system: EFO-21; test: cells; format: functional, cell-based; details: Homo sapiens;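 further: growth inhibition of EFO-21 cells measured with a viability assay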
Description: SANGER: Inhibition of human EFO-21 cell growth in a cell viability assay.

SMILES	IC50
CC1(C)CCC(c2ccc(Cl)cc2)=C(CN2CCN(c3ccc(C(=O)NS(=O)(=O)c4ccc(N[C@H](CCN5CCOCC5)CSc5ccccc5)c(S(=O)(=O)C(F)(F)F)c4)cc3)CC2)C1 [NAVITOCLAX]	> 2 µM

test system: NCI-H1792; test: cells; format: functional, cell-based; details: Homo sapiens;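 further: growth inhibition of human NCI-H1792 cells, read out as cell viability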
Description: SANGER: Inhibition of human NCI-H1792 cell growth in a cell viability assay.

SMILES	IC50
CC1(C)CCC(c2ccc(Cl)cc2)=C(CN2CCN(c3ccc(C(=O)NS(=O)(=O)c4ccc(N[C@H](CCN5CCOCC5)CSc5ccccc5)c(S(=O)(=O)C(F)(F)F)c4)cc3)CC2)C1 [NAVITOCLAX]	> 2 µM

test system: RH-18; test: cells; format: functional, cell-based; details: Homo sapiens, Rh18;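 further: growth inhibition of human RH-18 cells, read out with a cell viability assay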
Description: SANGER: Inhibition of human RH-18 cell growth in a cell viability assay.

SMILES	IC50
CC1(C)CCC(c2ccc(Cl)cc2)=C(CN2CCN(c3ccc(C(=O)NS(=O)(=O)c4ccc(N[C@H](CCN5CCOCC5)CSc5ccccc5)c(S(=O)(=O)C(F)(F)F)c4)cc3)CC2)C1 [NAVITOCLAX]	0.0605 µM

test system: SCC-9; test: cells; format: functional, cell-based; details: Homo sapiens;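 further: Read-out is a cell viability assay, with values giving inhibition of cell growth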
Description: SANGER: Inhibition of human SCC-9 cell growth in a cell viability assay.

SMILES	IC50
CC1(C)CCC(c2ccc(Cl)cc2)=C(CN2CCN(c3ccc(C(=O)NS(=O)(=O)c4ccc(N[C@H](CCN5CCOCC5)CSc5ccccc5)c(S(=O)(=O)C(F)(F)F)c4)cc3)CC2)C1 [NAVITOCLAX]	> 2 µM

test system: SW-620; test: cells; format: functional, cell-based; details: Homo sapiens;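 further: growth inhibition of human SW-620 cells, measured by a cell viability assay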
Description: SANGER: Inhibition of human SW620 cell growth in a cell viability assay.

SMILES	IC50
CC1(C)CCC(c2ccc(Cl)cc2)=C(CN2CCN(c3ccc(C(=O)NS(=O)(=O)c4ccc(N[C@H](CCN5CCOCC5)CSc5ccccc5)c(S(=O)(=O)C(F)(F)F)c4)cc3)CC2)C1 [NAVITOCLAX]	> 2 µM

test system: SK-MEL3; test: cells; format: functional, cell-based, SK-MEL-3; details: Homo sapiens;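 further: growth inhibition of human SK-MEL-3 cells, read out with a cell viability assay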
Description: SANGER: Inhibition of human SK-MEL-3 cell growth in a cell viability assay.

SMILES	IC50
CC1(C)CCC(c2ccc(Cl)cc2)=C(CN2CCN(c3ccc(C(=O)NS(=O)(=O)c4ccc(N[C@H](CCN5CCOCC5)CSc5ccccc5)c(S(=O)(=O)C(F)(F)F)c4)cc3)CC2)C1 [NAVITOCLAX]	> 2 µM

test system: NCI-H1693; test: cells; format: functional, cell-based; details: Homo sapiens;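 further: growth inhibition of the human cell line, read out with a cell viability assay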
Description: SANGER: Inhibition of human NCI-H1693 cell growth in a cell viability assay.

SMILES	IC50
CC1(C)CCC(c2ccc(Cl)cc2)=C(CN2CCN(c3ccc(C(=O)NS(=O)(=O)c4ccc(N[C@H](CCN5CCOCC5)CSc5ccccc5)c(S(=O)(=O)C(F)(F)F)c4)cc3)CC2)C1 [NAVITOCLAX]	> 2 µM

test system: BFTC-905; test: cells; format: functional, cell-based; details: Homo sapiens
Description: SANGER: Inhibition of human BFTC-905 cell growth in a cell viability assay.

SMILES	IC50
CC1(C)CCC(c2ccc(Cl)cc2)=C(CN2CCN(c3ccc(C(=O)NS(=O)(=O)c4ccc(N[C@H](CCN5CCOCC5)CSc5ccccc5)c(S(=O)(=O)C(F)(F)F)c4)cc3)CC2)C1 [NAVITOCLAX]	> 2 µM

test system: SNU-387; test: cells; format: functional, cell-based; details: Homo sapiens
Description: SANGER: Inhibition of human SNU-387 cell growth in a cell viability assay.

SMILES	IC50
CC1(C)CCC(c2ccc(Cl)cc2)=C(CN2CCN(c3ccc(C(=O)NS(=O)(=O)c4ccc(N[C@H](CCN5CCOCC5)CSc5ccccc5)c(S(=O)(=O)C(F)(F)F)c4)cc3)CC2)C1 [NAVITOCLAX]	> 2 µM

test system: UACC-893; test: cells; format: functional, cell-based; details: Homo sapiens
Description: SANGER: Inhibition of human UACC-893 cell growth in a cell viability assay.

SMILES	IC50
CC1(C)CCC(c2ccc(Cl)cc2)=C(CN2CCN(c3ccc(C(=O)NS(=O)(=O)c4ccc(N[C@H](CCN5CCOCC5)CSc5ccccc5)c(S(=O)(=O)C(F)(F)F)c4)cc3)CC2)C1 [NAVITOCLAX]	> 2 µM

test system: OAW-42; test: cells; format: functional, cell-based; details: Homo sapiens;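 further: growth inhibition of OAW-42 cells, read out with a cell viability assay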
Description: SANGER: Inhibition of human OAW-42 cell growth in a cell viability assay.

SMILES	IC50
CC1(C)CCC(c2ccc(Cl)cc2)=C(CN2CCN(c3ccc(C(=O)NS(=O)(=O)c4ccc(N[C@H](CCN5CCOCC5)CSc5ccccc5)c(S(=O)(=O)C(F)(F)F)c4)cc3)CC2)C1 [NAVITOCLAX]	0.961 µM

test system: NBsusSR; test: cells; format: functional, cell-based; details: Homo sapiens;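 further: growth inhibition of the human cell line, read out with a cell viability assay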
Description: SANGER: Inhibition of human NBsusSR cell growth in a cell viability assay.

SMILES	IC50
CC1(C)CCC(c2ccc(Cl)cc2)=C(CN2CCN(c3ccc(C(=O)NS(=O)(=O)c4ccc(N[C@H](CCN5CCOCC5)CSc5ccccc5)c(S(=O)(=O)C(F)(F)F)c4)cc3)CC2)C1 [NAVITOCLAX]	> 2 µM

test system: NCI-H358; test: cells; format: functional, cell-based; details: Homo sapiens;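 further: growth inhibition of NCI-H358 human cells, read out with a cell viability assay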
Description: SANGER: Inhibition of human NCI-H358 cell growth in a cell viability assay.

SMILES	IC50
CC1(C)CCC(c2ccc(Cl)cc2)=C(CN2CCN(c3ccc(C(=O)NS(=O)(=O)c4ccc(N[C@H](CCN5CCOCC5)CSc5ccccc5)c(S(=O)(=O)C(F)(F)F)c4)cc3)CC2)C1 [NAVITOCLAX]	> 2 µM

test system: ECC10; test: cells; format: functional, cell-based; details: Homo sapiens;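 further: growth inhibition of ECC10 cells, read out by a cell viability assay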
Description: SANGER: Inhibition of human ECC10 cell growth in a cell viability assay.

SMILES	IC50
CC1(C)CCC(c2ccc(Cl)cc2)=C(CN2CCN(c3ccc(C(=O)NS(=O)(=O)c4ccc(N[C@H](CCN5CCOCC5)CSc5ccccc5)c(S(=O)(=O)C(F)(F)F)c4)cc3)CC2)C1 [NAVITOCLAX]	0.0379 µM

test system: NCI-H727; test: cells; format: functional, cell-based; details: Homo sapiens;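 further: growth inhibition of human NCI-H727 cells, read out with a cell viability assay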
Description: SANGER: Inhibition of human NCI-H727 cell growth in a cell viability assay.

SMILES	IC50
CC1(C)CCC(c2ccc(Cl)cc2)=C(CN2CCN(c3ccc(C(=O)NS(=O)(=O)c4ccc(N[C@H](CCN5CCOCC5)CSc5ccccc5)c(S(=O)(=O)C(F)(F)F)c4)cc3)CC2)C1 [NAVITOCLAX]	> 2 µM

test system: OVCAR-3; test: cells; format: functional, cell-based; details: Homo sapiens;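 further: growth inhibition of human OVCAR-3 cells, determined by a cell viability assay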
Description: SANGER: Inhibition of human OVCAR-3 cell growth in a cell viability assay.

SMILES	IC50
CC1(C)CCC(c2ccc(Cl)cc2)=C(CN2CCN(c3ccc(C(=O)NS(=O)(=O)c4ccc(N[C@H](CCN5CCOCC5)CSc5ccccc5)c(S(=O)(=O)C(F)(F)F)c4)cc3)CC2)C1 [NAVITOCLAX]	> 2 µM

test system: AU565; test: cells; format: functional, cell-based; details: Homo sapiens;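 further: cell viability assay measuring growth inhibition of human AU565 cells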
Description: SANGER: Inhibition of human AU565 cell growth in a cell viability assay.

SMILES	IC50
CC1(C)CCC(c2ccc(Cl)cc2)=C(CN2CCN(c3ccc(C(=O)NS(=O)(=O)c4ccc(N[C@H](CCN5CCOCC5)CSc5ccccc5)c(S(=O)(=O)C(F)(F)F)c4)cc3)CC2)C1 [NAVITOCLAX]	> 2 µM

test system: MCF7; test: cells; format: functional, cell-based; details: Homo sapiens;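 further: growth inhibition of human MCF7 cells, read out with a cell viability assay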
Description: SANGER: Inhibition of human MCF7 cell growth in a cell viability assay.

SMILES	IC50
CC1(C)CCC(c2ccc(Cl)cc2)=C(CN2CCN(c3ccc(C(=O)NS(=O)(=O)c4ccc(N[C@H](CCN5CCOCC5)CSc5ccccc5)c(S(=O)(=O)C(F)(F)F)c4)cc3)CC2)C1 [NAVITOCLAX]	> 2 µM

test system: LU-135; test: cells; format: functional, cell-based; details: Homo sapiens
Description: SANGER: Inhibition of human LU-135 cell growth in a cell viability assay.

SMILES	IC50
CC1(C)CCC(c2ccc(Cl)cc2)=C(CN2CCN(c3ccc(C(=O)NS(=O)(=O)c4ccc(N[C@H](CCN5CCOCC5)CSc5ccccc5)c(S(=O)(=O)C(F)(F)F)c4)cc3)CC2)C1 [NAVITOCLAX]	0.186 µM

test system: SW837; test: cells; format: functional, cell-based; details: Homo sapiens;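 further: growth inhibition of SW837 cells, determined with a cell viability assay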
Description: SANGER: Inhibition of human SW837 cell growth in a cell viability assay.

SMILES	IC50
CC1(C)CCC(c2ccc(Cl)cc2)=C(CN2CCN(c3ccc(C(=O)NS(=O)(=O)c4ccc(N[C@H](CCN5CCOCC5)CSc5ccccc5)c(S(=O)(=O)C(F)(F)F)c4)cc3)CC2)C1 [NAVITOCLAX]	> 2 µM
